Reference: PMC6851657 (Clinical Pharmacology and Therapeutics, 2019)
Read-outs that look alike come from different tables or passages of the source. Marks after values point to notes of the source that are not given here.

Columns and labels:
[1] = day 28, observed, cited from earlier work; for AUC(0–24 h) / Cmin: GM (CV%); for Cmax: GM (CV%; 90% CI)
CYP2C8 = target: T1, CYP2C8 (Homo sapiens, UniProt P10632); assay: Enzyme phenotyping, intrinsic clearance by retrograde calculation; format: in vitro ADME
T1 sequence (P10632 1-490): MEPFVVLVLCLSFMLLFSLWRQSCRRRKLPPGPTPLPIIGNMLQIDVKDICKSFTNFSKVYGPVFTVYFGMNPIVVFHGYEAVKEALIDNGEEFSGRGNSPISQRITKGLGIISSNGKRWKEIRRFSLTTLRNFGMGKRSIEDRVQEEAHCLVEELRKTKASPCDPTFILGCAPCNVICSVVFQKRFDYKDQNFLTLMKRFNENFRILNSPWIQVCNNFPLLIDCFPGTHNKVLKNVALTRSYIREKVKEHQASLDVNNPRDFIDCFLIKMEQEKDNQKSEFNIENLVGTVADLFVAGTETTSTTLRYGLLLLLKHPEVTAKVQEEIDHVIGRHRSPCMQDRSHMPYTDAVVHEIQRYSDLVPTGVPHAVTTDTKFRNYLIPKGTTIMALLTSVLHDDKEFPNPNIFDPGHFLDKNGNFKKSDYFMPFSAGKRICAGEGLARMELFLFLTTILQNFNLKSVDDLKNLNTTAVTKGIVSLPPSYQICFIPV

CYP3A4 = CYP3A4 (Homo sapiens, UniProt P08684); assay: as above; format: in vitro ADME
[2] = cited from earlier work; for AUC decrease: coadministration of itraconazole
CYP2B6 = target: T2, CYP2B6 (Homo sapiens, UniProt P20813); assay: Enzyme phenotyping, intrinsic clearance by retrograde calculation; format: in vitro ADME
T2 sequence (P20813 1-491): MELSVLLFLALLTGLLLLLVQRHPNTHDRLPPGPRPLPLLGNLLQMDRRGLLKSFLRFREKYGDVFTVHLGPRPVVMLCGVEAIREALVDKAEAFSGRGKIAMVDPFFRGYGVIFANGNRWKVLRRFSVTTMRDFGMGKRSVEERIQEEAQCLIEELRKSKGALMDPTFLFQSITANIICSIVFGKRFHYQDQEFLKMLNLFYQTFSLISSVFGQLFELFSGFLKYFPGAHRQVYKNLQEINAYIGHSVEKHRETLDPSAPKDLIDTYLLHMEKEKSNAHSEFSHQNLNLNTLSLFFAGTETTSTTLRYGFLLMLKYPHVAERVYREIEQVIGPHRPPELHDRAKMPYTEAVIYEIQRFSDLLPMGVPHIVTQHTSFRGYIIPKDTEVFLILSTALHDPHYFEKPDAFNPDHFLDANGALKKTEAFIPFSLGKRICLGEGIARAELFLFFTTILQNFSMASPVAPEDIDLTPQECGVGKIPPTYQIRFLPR

[3] = cited from earlier work; for t1/2 / AUCinf / Cmax / Tmax: observed; for t1/2: GM (CV%); for AUCinf / Cmax: GM (CV%; 90% CI); for Tmax: median (range)
[4] = ref Novartis data on file, 5, cited from earlier work
[5] = cited from earlier work
[6] = observed, ref Novartis data on file, cited from earlier work; for AUCinf / Cmax / t1/2: GM (CV%; range)
CYP2C9 = CYP2C9 (Homo sapiens, UniProt P11712); settings: cited from earlier work
CYP2C19 = CYP2C19 (Homo sapiens, UniProt P33261); assay: Enzyme phenotyping, intrinsic clearance by retrograde calculation; format: in vitro ADME
[7] = coadministration of rifampin, CYP2C9*1/*1
[8] = coadministration with fluconazole, CYP2C9*1/*1
[9] = 0.3 mg solution p.o. single dose
[10] = 2.5 mg capsule p.o. single dose
[11] = 2.5 mg solution p.o. single dose
[12] = 17.5 mg capsule p.o. single dose

Chain of CYP3A4 (P08684 whole entry): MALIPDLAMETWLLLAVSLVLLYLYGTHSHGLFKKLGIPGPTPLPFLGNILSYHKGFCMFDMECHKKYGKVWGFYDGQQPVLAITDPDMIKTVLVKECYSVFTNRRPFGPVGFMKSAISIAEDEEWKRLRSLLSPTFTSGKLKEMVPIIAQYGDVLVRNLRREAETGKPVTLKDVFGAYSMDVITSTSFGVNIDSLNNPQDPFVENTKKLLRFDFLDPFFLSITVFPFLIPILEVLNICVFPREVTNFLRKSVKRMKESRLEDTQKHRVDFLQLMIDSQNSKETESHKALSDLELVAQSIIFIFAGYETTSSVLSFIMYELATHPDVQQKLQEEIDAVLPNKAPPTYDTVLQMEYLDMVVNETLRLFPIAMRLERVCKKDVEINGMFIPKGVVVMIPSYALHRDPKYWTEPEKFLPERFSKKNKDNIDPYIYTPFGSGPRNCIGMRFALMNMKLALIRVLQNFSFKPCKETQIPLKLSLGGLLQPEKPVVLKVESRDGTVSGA
Chain of CYP2C9 (P11712 whole entry): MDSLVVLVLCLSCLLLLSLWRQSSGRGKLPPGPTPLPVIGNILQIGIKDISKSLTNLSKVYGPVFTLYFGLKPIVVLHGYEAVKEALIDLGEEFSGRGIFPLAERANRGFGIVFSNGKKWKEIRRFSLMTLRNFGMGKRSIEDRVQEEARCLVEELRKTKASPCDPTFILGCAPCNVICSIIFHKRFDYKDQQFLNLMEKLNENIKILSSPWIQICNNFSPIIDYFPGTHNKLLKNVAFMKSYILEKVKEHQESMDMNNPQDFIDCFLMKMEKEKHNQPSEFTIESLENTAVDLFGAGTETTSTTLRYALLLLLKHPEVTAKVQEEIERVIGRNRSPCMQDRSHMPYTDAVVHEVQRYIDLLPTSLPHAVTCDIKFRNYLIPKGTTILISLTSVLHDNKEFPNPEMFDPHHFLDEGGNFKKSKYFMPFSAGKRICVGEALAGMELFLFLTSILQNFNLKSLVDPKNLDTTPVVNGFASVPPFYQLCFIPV
Chain of CYP2C19 (P33261 whole entry): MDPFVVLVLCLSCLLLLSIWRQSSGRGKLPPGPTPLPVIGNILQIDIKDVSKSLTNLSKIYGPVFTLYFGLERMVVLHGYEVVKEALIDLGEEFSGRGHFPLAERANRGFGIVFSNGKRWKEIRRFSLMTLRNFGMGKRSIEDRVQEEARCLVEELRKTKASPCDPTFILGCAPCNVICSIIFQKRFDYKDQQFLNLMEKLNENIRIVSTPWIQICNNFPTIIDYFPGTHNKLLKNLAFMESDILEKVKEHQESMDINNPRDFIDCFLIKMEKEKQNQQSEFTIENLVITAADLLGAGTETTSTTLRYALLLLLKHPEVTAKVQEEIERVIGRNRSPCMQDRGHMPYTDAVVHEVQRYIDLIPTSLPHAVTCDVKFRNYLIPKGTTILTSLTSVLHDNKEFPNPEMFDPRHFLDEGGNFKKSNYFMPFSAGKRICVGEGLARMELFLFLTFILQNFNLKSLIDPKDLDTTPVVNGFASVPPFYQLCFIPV

In the case of CCc1cc(/C(C)=N/OCc2ccc(C3CCCCC3)c(C(F)(F)F)c2)ccc1CN1CC(C(=O)O)C1 [siponimod], the “AUC(0–24 h)” value ([1]; 0.3 mg solution p.o. q.d.) is given as 97.9 (19) ng·hour/mL, the Cmin ([1]; 0.3 mg solution p.o. q.d.) is given as 2.83 (27) ng/mL and the Cmax ([1]; 0.3 mg solution p.o. q.d.) is given as 5.13 (16; 4.76–5.86) ng/mL. The “AUC(0–24 h)” value ([1]; 1 mg solution p.o. q.d.) was 282 (16) ng·hour/mL, the Cmin ([1]; 1 mg solution p.o. q.d.) was 7.74 (20) ng/mL and the Cmax ([1]; 1 mg solution p.o. q.d.) was 14.9 (10; 14.0–15.9) ng/mL. The “AUC(0–24 h)” value ([1]; 2.5 mg capsule p.o. q.d.) was 692 (45) ng·hour/mL, the Cmin ([1]; 2.5 mg capsule p.o. q.d.) was 15.2 (120) ng/mL and the Cmax ([1]; 2.5 mg capsule p.o. q.d.) was 38.3 (37; 29.1–47.4) ng/mL. For the same compound, the “AUC(0–24 h)” value ([1]; 10 mg capsule p.o. q.d.) was 2,580 (24) ng·hour/mL, the Cmin ([1]; 10 mg capsule p.o. q.d.) was 70.6 (29) ng/mL and the Cmax ([1]; 10 mg capsule p.o. q.d.) was 147 (24; 126–168) ng/mL. For the same compound, the “AUC(0–24 h)” value ([1]; 20 mg capsule p.o. q.d.) was 6,370 (23) ng·hour/mL, the Cmin ([1]; 20 mg capsule p.o. q.d.) was 166 (88) ng/mL and the Cmax ([1]; 20 mg capsule p.o. q.d.) was 359 (17; 325–394) ng/mL. For the same compound, the “CLint (CYP2C8)” value (CYP2C8) was 2.941 µL/min/pmol, the fmCYP2C8 (CYP2C8; fraction metabolized) was 0.017 and the “CLint (CYP3A4)” value (CYP3A4) was 5.607 µL/min/pmol. The fmCYP3A4 (CYP3A4; CYP2C9*1/*1) was 0.175, the fmCYP3A4 (CYP3A4; CYP2C9*1/*2) was 0.189 and the fmCYP3A4 (CYP3A4; CYP2C9*1/*3) was 0.287. For the same compound, the fmCYP3A4 (CYP3A4; CYP2C9*2/*2) was 0.244, the fmCYP3A4 (CYP3A4; CYP2C9*2/*3) was 0.343 and the fmCYP3A4 (CYP3A4; fraction metabolized) was 0.185. The AUC decrease ([2]; CYP2C9*1/*2) was 9–10%, the AUC decrease ([2]; CYP2C9*1/*3) was 24% and the AUC reduction [2, 7] was 57%. For the same compound, the Cmax reduction [2, 7] was 45%, the AUC increase [2, 8] was “increased approximately two fold” and the Cmax increase [2, 8] was ~ 10%. The “In vitro intrinsic clearance (CYP2B6)” value (CYP2B6) was 0.733 µL/min/pmol, the fmCYP2B6 (CYP2B6; fraction metabolized) was 0.004 and the t1/2 [3, 9] was 33.21 (28) h. The AUCinf [3, 9] was 89.3 (20; 79.2–99.4) ng·hour/mL, the Cmax [3, 9] was 2.26 (6; 2.17–2.34) ng/mL and the Tmax [3, 9] was 5 (4.00–8.00) h. The t1/2 ([3]; 1 mg solution p.o. single dose) was 45.7 (26) h, the AUCinf ([3]; 1 mg solution p.o. single dose) was 349 (28; 292–406) ng·hour/mL and the Cmax ([3]; 1 mg solution p.o. single dose) was 7.43 (42; 5.37–9.50) ng/mL. The Tmax ([3]; 1 mg solution p.o. single dose) was 5 (4.00–15.7) h, the t1/2 [3, 10] was 29.3 (17) h and the AUCinf [3, 10] was 745 (25; 632–858) ng·hour/mL. For the same compound, the Cmax [3, 10] was 19.3 (19; 17.1–21.5) ng/mL, the Tmax [3, 10] was 6 (4.00–8.00) h and the t1/2 [3, 11] was 27.0 (22) h. For the same compound, the AUCinf [3, 11] was 766 (36; 598–935) ng·hour/mL, the Cmax [3, 11] was 21.9 (35; 16.7–27.0) ng/mL and the Tmax [3, 11] was 4 (3.00–8.00) h. For the same compound, the t1/2 ([3]; 5 mg capsule p.o. single dose) was 31.3 (19) h, the AUCinf ([3]; 5 mg capsule p.o. single dose) was 1,260 (20; 1,149–1,384) ng·hour/mL and the Cmax ([3]; 5 mg capsule p.o. single dose) was 38.5 (21; 33.5–41.5) ng/mL. For the same compound, the Tmax ([3]; 5 mg capsule p.o. single dose) was 3 (2.00–8.00) h, the t1/2 ([3]; 10 mg capsule p.o. single dose) was 32.0 (17) h and the AUCinf ([3]; 10 mg capsule p.o. single dose) was 2,710 (14; 2,507–2,915) ng·hour/mL. The Cmax ([3]; 10 mg capsule p.o. single dose) was 77.3 (25; 64.8–89.7) ng/mL, the Tmax ([3]; 10 mg capsule p.o. single dose) was 5 (3.82–16.0) h and the t1/2 [3, 12] was 42.3 (38) h. The AUCinf [3, 12] was 4,230 (25; 3,666–4,792) ng·hour/mL, the Cmax [3, 12] was 111 (32; 93.7–128.4) ng/mL and the Tmax [3, 12] was 4 (2.00–8.00) h. For the same compound, the t1/2 ([3]; 25 mg capsule p.o. single dose) was 47.7 (20) h, the AUCinf ([3]; 25 mg capsule p.o. single dose) was 8,140 (24; 6,987–9,302) ng·hour/mL and the Cmax ([3]; 25 mg capsule p.o. single dose) was 217 (29; 180–254) ng/mL. The Tmax ([3]; 25 mg capsule p.o. single dose) was 3.50 (1.50–12.0) h, the t1/2 ([3]; 75 mg capsule p.o. single dose) was 56.7 (12) h and the Cmax ([3]; 75 mg capsule p.o. single dose) was 491 (51; 346–637) ng/mL. The Tmax ([3]; 75 mg capsule p.o. single dose) was 6 (2.00–24.00) h, the “elimination half‐life (t1/2), range” value [3] was 22 to 38 h and the “mean elimination half‐life (t1/2)” value [3] was ~ 30 hours. The “lower total body clearance from plasma vs CYP2C9*1/*1” value ([4]; CYP2C9*1/*3) was 35–38%, the “lower total body clearance from plasma vs CYP2C9*1/*1” value ([4]; CYP2C9*2/*2) was 20% and the “lower total body clearance from plasma vs CYP2C9*1/*1” value ([4]; CYP2C9*2/*3) was 45–48%. The “lower total body clearance from plasma vs CYP2C9*1/*1” value ([4]; CYP2C9*3/*3) was 74%, the “Fraction available from dosage form” value ([5]; based on amount of siponimod excreted to feces) was 0.91 ^c and the Absorption rate constant ([5]; estimated based on PopPK model, ref Novartis data on file) was 0.687 ^d 1/hour. For the same compound, the AUCinf ([6]; 0.25 mg i.v. single dose) was 80.1 (25.6; 47.7–125) ng·hour/mL, the Cmax ([6]; 0.25 mg i.v. single dose) was 3.22 (19; 1.88–3.81) ng/mL and the t1/2 ([6]; 0.25 mg i.v. single dose) was 27.4 (22.5; 20.1–47.7) h. For the same compound, the Tmax ([6]; 0.25 mg i.v. single dose, median (range)) was 2.92 (2.92–2.92) h, the AUCinf ([6]; 0.25 mg p.o. single dose) was 67.4 (26; 39.8–105) ng·hour/mL and the Cmax ([6]; 0.25 mg p.o. single dose) was 1.71 (24; 0.920–2.30) ng/mL. For the same compound, the t1/2 ([6]; 0.25 mg p.o. single dose) was 26.7 (22; 17.2–43.8) h, the “fraction metabolized via CYP2C9 (fm,CYP2C9)” value (CYP2C9; in vitro phenotyping data) was 0.79 and the “contribution of CYP2C9 to metabolism” value (CYP2C9; in vitro phenotyping, normalized to 100%) was 79.3%. The fmCYP2C19 (CYP2C19; fraction metabolized) was 0.001 and the “CLint (CYP2C19)” value (CYP2C19; retrograde calculator from CL 3.12 L/hour, fu(mic) set to 1) was 0.593 µL/min/pmol.
